The target of data set [1] is Prostanoid EP4 (Homo sapiens, UniProt P35408). Put plainly: Eurofins Lead Profiling radioligand binding. The settings on record: title: 30 μM.
The target in data set [2] is Leukotriene, Cysteinyl CysLT1 (Homo sapiens, UniProt Q9Y271). Put plainly: Eurofins Lead Profiling radioligand binding. Particulars: title: 30 μM.
Data set [3] addresses Vanilloid (Rattus norvegicus, UniProt O35433). Put plainly: Eurofins Lead Profiling radioligand binding. The settings on record: title: 30 μM.
For data set [4], the target named is Adrenergic α1B (Rattus norvegicus, UniProt P15823). Put plainly: Eurofins Lead Profiling radioligand binding. The settings on record: title: 30 μM.
In data set [5] the target is Adrenergic α1D (Homo sapiens, UniProt P25100). Kind of data set: Eurofins Lead Profiling radioligand binding. Particulars: title: 30 μM.
For data set [6], the system named is Phorbol Ester. Kind of data set: Eurofins Lead Profiling radioligand binding. Details: species or system Mouse. Particulars: title: 30 μM.
The subject of data set [7] is Glutamate, NMDA, Phencyclidine. Kind of data set: Eurofins Lead Profiling radioligand binding. Also noted: species or system Rat. The settings on record: title: 30 μM.
The target in data set [8] is Sigma σ1 (Homo sapiens, UniProt Q99720). Put plainly: Eurofins Lead Profiling radioligand binding. Particulars: title: 30 μM.
Data set [9] deals with Transporter, GABA (Rattus norvegicus, UniProt P23978). Kind of data set: Eurofins Lead Profiling radioligand binding. Particulars: title: 30 μM.
Data set [10] has as its system Glutamate, Kainate. Kind of data set: Eurofins Lead Profiling radioligand binding. Details: species or system Rat. The settings on record: title: 30 μM.
In data set [11] the target is Muscarinic M2 (Homo sapiens, UniProt P08172). Put plainly: Eurofins Lead Profiling radioligand binding. The settings on record: title: 30 μM.
For data set [12], the target named is Histamine H3 (Homo sapiens, UniProt Q9Y5N1). Put plainly: Eurofins Lead Profiling radioligand binding. Particulars: title: 30 μM.
Data set [13] concerns the target Interleukin IL-1 R1 (Mus musculus, UniProt P13504). Kind of data set: Eurofins Lead Profiling radioligand binding. The settings on record: title: 30 μM.
Data set [14] addresses hERG potassium channel (Homo sapiens, UniProt Q12809). Put plainly: Eurofins Lead Profiling radioligand binding. The settings on record: title: 30 μM.
Data set [15] deals with Purinergic P2X. Kind of data set: Eurofins Lead Profiling radioligand binding. Particulars: title: 30 μM. Details: species or system Rabbit.
Data set [16] concerns the target Adrenergic α2A (Homo sapiens, UniProt P08913). Put plainly: Eurofins Lead Profiling radioligand binding. Particulars: title: 30 μM.
Data set [17] has as its target Estrogen ERα (Homo sapiens, UniProt P03372). Put plainly: Eurofins Lead Profiling radioligand binding. Particulars: title: 30 μM.
The target in data set [18] is Tachykinin NK1 (Homo sapiens, UniProt P25103). Put plainly: Eurofins Lead Profiling radioligand binding. Particulars: title: 30 μM.
The target in data set [19] is T1, TREK-1 (Homo sapiens, UniProt O95069).
T1 sequence (O95069 1-426): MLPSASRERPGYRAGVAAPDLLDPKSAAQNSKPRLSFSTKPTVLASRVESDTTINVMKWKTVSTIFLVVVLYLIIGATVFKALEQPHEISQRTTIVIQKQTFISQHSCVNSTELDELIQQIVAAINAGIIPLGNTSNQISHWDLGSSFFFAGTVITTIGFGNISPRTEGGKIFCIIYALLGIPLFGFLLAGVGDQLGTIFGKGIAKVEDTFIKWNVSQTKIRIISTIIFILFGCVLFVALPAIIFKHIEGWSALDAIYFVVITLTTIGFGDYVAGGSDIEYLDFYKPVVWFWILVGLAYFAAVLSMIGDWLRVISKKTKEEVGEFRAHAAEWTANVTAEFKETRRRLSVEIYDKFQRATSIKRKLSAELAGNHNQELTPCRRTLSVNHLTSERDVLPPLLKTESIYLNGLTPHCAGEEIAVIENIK
Put plainly: human TREK-1 MPC assay. Format: cell-based. Details: host or cells: CHO.

Data set [20] addresses T2, TREK-2 (Homo sapiens, UniProt P57789).
T2 sequence (P57789 1-538): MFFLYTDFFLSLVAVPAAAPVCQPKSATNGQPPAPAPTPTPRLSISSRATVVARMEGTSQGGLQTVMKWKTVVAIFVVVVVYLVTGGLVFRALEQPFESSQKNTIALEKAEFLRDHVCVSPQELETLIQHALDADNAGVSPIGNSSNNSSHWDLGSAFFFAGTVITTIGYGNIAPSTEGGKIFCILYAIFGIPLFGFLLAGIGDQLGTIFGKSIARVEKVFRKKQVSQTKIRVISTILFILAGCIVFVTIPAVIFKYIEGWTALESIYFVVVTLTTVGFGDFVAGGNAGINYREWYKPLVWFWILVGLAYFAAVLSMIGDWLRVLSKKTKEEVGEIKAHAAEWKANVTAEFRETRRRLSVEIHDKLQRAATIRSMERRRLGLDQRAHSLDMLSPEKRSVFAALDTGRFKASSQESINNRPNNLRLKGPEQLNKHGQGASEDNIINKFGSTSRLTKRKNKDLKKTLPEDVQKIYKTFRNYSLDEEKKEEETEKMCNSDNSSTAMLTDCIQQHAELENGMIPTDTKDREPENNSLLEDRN
Put plainly: human TREK-2 MPC assay. The data set is classed as cell-based. Details: expressed in transfected cells; host or cells: HEK293.

Chain of Interleukin IL-1 R1 (P13504 20-576): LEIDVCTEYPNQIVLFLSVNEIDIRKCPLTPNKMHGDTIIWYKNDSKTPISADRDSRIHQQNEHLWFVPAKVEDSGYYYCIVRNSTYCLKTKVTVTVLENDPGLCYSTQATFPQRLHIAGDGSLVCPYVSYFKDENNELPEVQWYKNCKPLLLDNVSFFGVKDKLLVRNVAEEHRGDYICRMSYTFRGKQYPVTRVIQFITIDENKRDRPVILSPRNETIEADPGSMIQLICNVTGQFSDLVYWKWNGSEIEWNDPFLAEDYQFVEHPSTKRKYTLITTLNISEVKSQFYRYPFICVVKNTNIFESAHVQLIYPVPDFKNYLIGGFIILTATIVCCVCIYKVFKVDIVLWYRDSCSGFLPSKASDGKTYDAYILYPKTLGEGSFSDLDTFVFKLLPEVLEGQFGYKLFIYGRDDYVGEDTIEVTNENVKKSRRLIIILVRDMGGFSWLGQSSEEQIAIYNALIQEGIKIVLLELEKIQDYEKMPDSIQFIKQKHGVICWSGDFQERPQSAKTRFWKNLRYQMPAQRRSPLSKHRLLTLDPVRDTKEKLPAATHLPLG
Chain of Tachykinin NK1 (P25103 whole entry): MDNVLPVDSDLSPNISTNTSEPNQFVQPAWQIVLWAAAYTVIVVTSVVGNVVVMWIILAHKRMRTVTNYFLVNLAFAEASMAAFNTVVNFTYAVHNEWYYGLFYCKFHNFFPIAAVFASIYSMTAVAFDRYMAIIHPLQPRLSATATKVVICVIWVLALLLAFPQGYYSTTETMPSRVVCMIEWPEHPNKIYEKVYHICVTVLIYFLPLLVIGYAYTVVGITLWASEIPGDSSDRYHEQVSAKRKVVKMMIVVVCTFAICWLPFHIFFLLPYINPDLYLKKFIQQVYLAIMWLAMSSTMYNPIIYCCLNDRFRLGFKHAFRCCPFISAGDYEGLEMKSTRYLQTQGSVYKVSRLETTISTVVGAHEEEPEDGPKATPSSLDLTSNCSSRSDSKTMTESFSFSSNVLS
Chain of Leukotriene, Cysteinyl CysLT1 (Q9Y271 whole entry): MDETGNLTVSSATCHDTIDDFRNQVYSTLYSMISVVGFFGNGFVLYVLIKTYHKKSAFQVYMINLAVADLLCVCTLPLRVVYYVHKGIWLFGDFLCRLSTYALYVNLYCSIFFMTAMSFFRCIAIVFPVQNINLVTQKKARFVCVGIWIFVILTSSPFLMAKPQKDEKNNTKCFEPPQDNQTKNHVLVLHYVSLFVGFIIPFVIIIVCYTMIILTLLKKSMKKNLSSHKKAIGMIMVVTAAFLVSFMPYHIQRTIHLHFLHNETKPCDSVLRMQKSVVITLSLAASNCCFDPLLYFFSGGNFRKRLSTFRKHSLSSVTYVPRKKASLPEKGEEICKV
Chain of Adrenergic α1D (P25100 whole entry): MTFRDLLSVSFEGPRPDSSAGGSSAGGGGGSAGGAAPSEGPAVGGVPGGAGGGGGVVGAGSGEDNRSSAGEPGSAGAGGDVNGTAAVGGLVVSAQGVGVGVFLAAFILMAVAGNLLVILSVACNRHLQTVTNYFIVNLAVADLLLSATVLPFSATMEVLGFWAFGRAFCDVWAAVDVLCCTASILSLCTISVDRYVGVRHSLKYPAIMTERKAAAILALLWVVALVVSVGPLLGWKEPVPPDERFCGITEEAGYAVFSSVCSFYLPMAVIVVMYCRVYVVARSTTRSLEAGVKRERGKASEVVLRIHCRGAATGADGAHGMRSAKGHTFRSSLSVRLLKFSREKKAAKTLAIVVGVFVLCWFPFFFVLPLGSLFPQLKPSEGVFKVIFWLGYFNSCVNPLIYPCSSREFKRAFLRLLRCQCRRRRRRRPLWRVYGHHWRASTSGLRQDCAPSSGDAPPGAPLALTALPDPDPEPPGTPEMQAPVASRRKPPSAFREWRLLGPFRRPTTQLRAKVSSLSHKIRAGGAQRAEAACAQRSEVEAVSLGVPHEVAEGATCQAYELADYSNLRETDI
Chain of hERG potassium channel (Q12809 whole entry): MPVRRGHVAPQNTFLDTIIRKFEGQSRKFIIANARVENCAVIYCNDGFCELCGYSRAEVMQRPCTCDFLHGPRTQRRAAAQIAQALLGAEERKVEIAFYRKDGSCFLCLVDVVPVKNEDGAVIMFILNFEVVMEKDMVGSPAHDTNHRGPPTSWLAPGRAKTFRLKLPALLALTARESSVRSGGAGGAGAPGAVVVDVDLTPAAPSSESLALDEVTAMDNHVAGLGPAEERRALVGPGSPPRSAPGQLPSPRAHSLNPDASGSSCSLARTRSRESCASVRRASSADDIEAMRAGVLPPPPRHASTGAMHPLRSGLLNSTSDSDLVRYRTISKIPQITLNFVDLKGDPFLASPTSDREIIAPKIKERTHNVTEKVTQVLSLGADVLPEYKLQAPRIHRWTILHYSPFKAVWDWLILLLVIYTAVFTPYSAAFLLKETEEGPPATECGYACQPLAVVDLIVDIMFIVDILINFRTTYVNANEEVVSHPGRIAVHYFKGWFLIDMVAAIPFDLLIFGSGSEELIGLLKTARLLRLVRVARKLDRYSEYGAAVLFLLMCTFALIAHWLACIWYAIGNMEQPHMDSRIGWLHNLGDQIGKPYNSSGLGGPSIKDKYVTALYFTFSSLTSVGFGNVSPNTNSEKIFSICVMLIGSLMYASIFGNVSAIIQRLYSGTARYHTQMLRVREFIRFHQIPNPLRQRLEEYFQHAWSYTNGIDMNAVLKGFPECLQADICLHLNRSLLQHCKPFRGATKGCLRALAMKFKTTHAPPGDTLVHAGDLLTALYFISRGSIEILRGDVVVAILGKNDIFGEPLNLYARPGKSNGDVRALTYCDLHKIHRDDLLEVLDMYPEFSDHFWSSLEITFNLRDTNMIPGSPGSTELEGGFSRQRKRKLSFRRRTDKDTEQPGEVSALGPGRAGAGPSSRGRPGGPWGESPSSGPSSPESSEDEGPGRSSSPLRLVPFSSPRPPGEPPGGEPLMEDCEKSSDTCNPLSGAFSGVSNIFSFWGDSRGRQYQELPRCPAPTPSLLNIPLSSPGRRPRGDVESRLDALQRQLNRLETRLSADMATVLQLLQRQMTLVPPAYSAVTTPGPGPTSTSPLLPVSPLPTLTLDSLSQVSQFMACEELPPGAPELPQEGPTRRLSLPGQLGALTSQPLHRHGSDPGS
Chain of Prostanoid EP4 (P35408 whole entry): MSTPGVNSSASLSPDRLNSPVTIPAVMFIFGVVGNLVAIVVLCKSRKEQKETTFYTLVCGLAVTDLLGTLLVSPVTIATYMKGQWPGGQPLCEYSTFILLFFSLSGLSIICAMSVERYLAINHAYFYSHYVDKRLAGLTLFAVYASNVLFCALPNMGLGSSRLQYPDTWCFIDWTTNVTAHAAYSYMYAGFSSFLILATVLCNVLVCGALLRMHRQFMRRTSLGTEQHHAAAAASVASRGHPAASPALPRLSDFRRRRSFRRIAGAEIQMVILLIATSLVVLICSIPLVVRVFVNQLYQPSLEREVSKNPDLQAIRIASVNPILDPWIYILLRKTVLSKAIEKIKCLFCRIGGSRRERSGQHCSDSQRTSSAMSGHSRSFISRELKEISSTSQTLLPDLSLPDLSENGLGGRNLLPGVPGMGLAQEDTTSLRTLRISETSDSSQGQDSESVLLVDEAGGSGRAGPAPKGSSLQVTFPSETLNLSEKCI
Chain of Estrogen ERα (P03372 whole entry): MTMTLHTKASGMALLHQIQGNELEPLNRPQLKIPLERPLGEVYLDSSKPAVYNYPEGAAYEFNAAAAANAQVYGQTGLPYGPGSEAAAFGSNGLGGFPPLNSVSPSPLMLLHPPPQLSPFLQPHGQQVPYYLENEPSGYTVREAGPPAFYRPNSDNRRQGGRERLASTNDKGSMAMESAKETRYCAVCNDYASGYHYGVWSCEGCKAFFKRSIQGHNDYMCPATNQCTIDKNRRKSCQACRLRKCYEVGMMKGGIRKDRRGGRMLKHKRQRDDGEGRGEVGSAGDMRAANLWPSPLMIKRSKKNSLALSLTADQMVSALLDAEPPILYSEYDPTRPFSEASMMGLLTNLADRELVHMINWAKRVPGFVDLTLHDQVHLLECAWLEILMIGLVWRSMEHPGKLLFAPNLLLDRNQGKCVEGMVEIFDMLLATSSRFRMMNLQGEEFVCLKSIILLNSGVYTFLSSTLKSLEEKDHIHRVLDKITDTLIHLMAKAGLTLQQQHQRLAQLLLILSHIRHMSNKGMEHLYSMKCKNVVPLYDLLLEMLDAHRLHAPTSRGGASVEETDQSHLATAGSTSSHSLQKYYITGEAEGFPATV
Chain of Sigma σ1 (Q99720 whole entry): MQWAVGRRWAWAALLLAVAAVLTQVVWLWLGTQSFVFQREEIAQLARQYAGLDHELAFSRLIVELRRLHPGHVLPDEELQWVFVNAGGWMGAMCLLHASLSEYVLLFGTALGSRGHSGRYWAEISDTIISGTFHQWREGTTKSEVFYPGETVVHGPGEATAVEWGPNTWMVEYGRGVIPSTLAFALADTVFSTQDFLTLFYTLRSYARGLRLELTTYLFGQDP

Broadly, the inhibition is the drop in the measured response relative to a control, in per cent. Broadly, the % Inhibition is the relative decrease from the control value, in per cent. As for `O=C(NCc1ccc(OC(F)(F)F)cc1F)c1ccc2ncnn2c1` [Compound 19b], the inhibition in [1] is 14%; in [2], 5%; in data set [3], -8%; in data set [8], 45%; in data set [9] it was -6%; in [11], -3%. For the same compound, the inhibition in data set [12] is 1%; in data set [13], 9%; in [14], 44%; in [16] it was 3%; in data set [17] it was 1%; in data set [18] it was 2%. The inhibition at 10 µM in data set [4] was found to be 6%; in data set [5], 4%. Further, the “% Inhibition at 10 µM” value is recorded as 0% in [6], 0% in data set [7], 13% in data set [10] and 22% in data set [15].

Broadly, the EC50 is the concentration needed to bring the measured effect to its halfway point. Higher therefore signals a need for much substance. One may read the Emax as the greatest response seen or fitted, relative to the assay's reference. For `O=C(NCc1ccc(OC(F)(F)F)cc1Cl)c1ccc2nncn2c1` [Compound 20], the EC50 was 330 nM in data set [19] and 190 nM in data set [20]. In addition, the Emax in data set [19] came out at 172%; in [20], 142%.

Source of the values: paper PMC11887051, “Discovery of ONO-2920632 (VU6011887): A Highly Selective and CNS Penetrant TREK-2 (TWIK-Related K+ Channel 2) Preferring Activator In Vivo Tool Compound” (ACS Chemical Neuroscience, 2025).
